The experiment concerns MIA PaCa-2 cells. The experiment can be described thus: In-vitro anti-proliferative activity against MIA PaCa-2 cells. Type of experiment: cell-based. The following applies: Homo sapiens, 72 h after dosing, intracellular ATP content. On the procedure: MIA PaCa-2 cells were seeded on a 384-well plate at 3000 cells/well. After overnight adherence culture, DMSO or the compounds serially diluted 1:5 from 5 μM were added. […] The inhibition percentage of viable cells by the compounds was calculated by comparing with the DMSO group, and the IC50 value was calculated.

SMILES strings stand for the structures.

By IC50 is commonly meant the concentration needed to halve the response being measured. A lower IC50 goes with higher potency. Turning to `C[C@@H]1COCCN1c1cc(CC#N)c2ccnc(-c3ccn[nH]3)c2n1` [Compound 1, (R)-2-(2-(3-methylmorpholino)-8-(1H-pyrazol-5-yl)-1,7-naphthyridin-4-yl)acetonitrile], the IC50 is > 5000 nM. The result for `CC(C#N)c1cc(N2CCOC[C@H]2C)nc2c(-c3ccn[nH]3)nccc12` (stereo partly drawn) [Compound 2, 2-(2-((R)-3-methylmorpholino)-8-(1H-pyrazol-5-yl)-1,7-naphthyridin-4-yl)propionitrile] reads > 5000 nM; that for `C[C@@H]1COCCN1c1cc(C(C)(C)C#N)c2ccnc(-c3ccn[nH]3)c2n1` [Compound 3, (R)-2-methyl-2-(2-(3-methylmorpholino)-8-(1H-pyrazol-5-yl)-1,7-naphthyridin-4-yl)propionitrile], > 5000 nM. The result for `CCC(C#N)c1cc(N2CCOC[C@H]2C)nc2c(-c3ccn[nH]3)nccc12` (stereo partly drawn) [Compound 4] reads > 5000 nM.

Compound `CC(C)C(C#N)c1cc(N2CCOC[C@H]2C)nc2c(-c3ccn[nH]3)nccc12` (stereo partly drawn) [Compound 5] yielded an IC50 of 1000 to 5000 nM. Next, `C[C@@H]1COCCN1c1cc(C(C#N)CC2CC2)c2ccnc(-c3ccn[nH]3)c2n1` (stereo partly drawn) [Compound 6]: 1000 to 5000 nM; `C=CC(C#N)c1cc(N2CCOC[C@H]2C)nc2c(-c3ccn[nH]3)nccc12` (stereo partly drawn) [Compound 7]: > 5000 nM. As for `CC#CC(C#N)c1cc(N2CCOC[C@H]2C)nc2c(-c3ccn[nH]3)nccc12` (stereo partly drawn) [Compound 8], the IC50 is > 5000 nM. Next, `C[C@@H]1COCCN1c1cc(C(C#N)CCO)c2ccnc(-c3ccn[nH]3)c2n1` (stereo partly drawn) [Compound 9]: 1000 to 5000 nM. The result for `COCCC(C#N)c1cc(N2CCOC[C@H]2C)nc2c(-c3ccn[nH]3)nccc12` (stereo partly drawn) [Compound 10] reads 1000 to 5000 nM; that for `C[C@@H]1COCCN1c1cc(C(C#N)CC(N)=O)c2ccnc(-c3ccn[nH]3)c2n1` (stereo partly drawn) [Compound 11], 1000 to 5000 nM; that for `CCOP(=O)(CCC(C#N)c1cc(N2CCOC[C@H]2C)nc2c(-c3ccn[nH]3)nccc12)OCC` (stereo partly drawn) [Compound 12], 1000 to 5000 nM. The result for `CSCCC(C#N)c1cc(N2CCOC[C@H]2C)nc2c(-c3ccn[nH]3)nccc12` (stereo partly drawn) [Compound 13] reads 1000 to 5000 nM; that for `C[C@@H]1COCCN1c1cc(C(C#N)CC[S+](C)[O-])c2ccnc(-c3ccn[nH]3)c2n1` (stereo partly drawn) [Compound 14], > 5000 nM. For `C[C@@H]1COCCN1c1cc(C(C#N)CCS(C)(=O)=O)c2ccnc(-c3ccn[nH]3)c2n1` (stereo partly drawn) [Compound 15], the IC50 is > 5000 nM. Next, `C[C@@H]1COCCN1c1cc(C(C#N)CCN)c2ccnc(-c3ccn[nH]3)c2n1` (stereo partly drawn) [Compound 16]: 1000 to 5000 nM; `C[C@@H]1COCCN1c1cc(C(C#N)CCN(C)C)c2ccnc(-c3ccn[nH]3)c2n1` (stereo partly drawn) [Compound 17]: 1000 to 5000 nM. The compound `C[C@@H]1COCCN1c1cc(C(C#N)CCN2CCCC2)c2ccnc(-c3ccn[nH]3)c2n1` (stereo partly drawn) [Compound 18] gave an IC50 of 1000 to 5000 nM. The result for `C[C@@H]1COCCN1c1cc(C(C#N)CCN2CCN(C)CC2)c2ccnc(-c3ccn[nH]3)c2n1` (stereo partly drawn) [Compound 19] reads 1000 to 5000 nM. Next, `C[C@@H]1COCCN1c1cc(C(C#N)C2CCC2)c2ccnc(-c3ccn[nH]3)c2n1` (stereo partly drawn) [Compound 20]: > 5000 nM; `C[C@@H]1COCCN1c1cc(C(C#N)C2CCCCC2)c2ccnc(-c3ccn[nH]3)c2n1` (stereo partly drawn) [Compound 21]: 1000 to 5000 nM; `C[C@@H]1COCCN1c1cc(C(C#N)C2CCOCC2)c2ccnc(-c3ccn[nH]3)c2n1` (stereo partly drawn) [Compound 22]: 1000 to 5000 nM.

Turning to `C[C@@H]1COCCN1c1cc(C(C#N)C2CCC(N(C)C)CC2)c2ccnc(-c3ccn[nH]3)c2n1` (stereo partly drawn) [Compound 23], the IC50 fell in the range of 1000 to 5000 nM. Next, `C[C@@H]1COCCN1c1cc(C(C#N)C2CCN(C)CC2)c2ccnc(-c3ccn[nH]3)c2n1` (stereo partly drawn) [Compound 24]: 1000 to 5000 nM; `C[C@@H]1COCCN1c1cc(C2(C#N)CCC2)c2ccnc(-c3ccn[nH]3)c2n1` [Compound 26]: 1000 to 5000 nM; `C[C@@H]1COCCN1c1cc(C2(C#N)CC2)c2ccnc(-c3ccn[nH]3)c2n1` [Compound 28]: > 5000 nM. The result for `C[C@@H]1COCCN1c1cc(C2(C#N)CCSCC2)c2ccnc(-c3ccn[nH]3)c2n1` [Compound 30] reads 1000 to 5000 nM; that for `C[C@@H]1COCCN1c1cc(C2(C#N)CCCCCC2)c2ccnc(-c3ccn[nH]3)c2n1` [Compound 31], < 1000 nM; that for `C[C@@H]1COCCN1c1cc(C2(C#N)CCC3(CC3)CC2)c2ccnc(-c3ccn[nH]3)c2n1` [Compound 32], < 1000 nM.

For `C[C@@H]1COCCN1c1cc(C2(C#N)CCC(N3CCN(C)CC3)CC2)c2ccnc(-c3ccn[nH]3)c2n1` (stereo partly drawn) [Compound 36], the IC50 is < 1000 nM. Next, `C[C@@H]1COCCN1c1cc(C2(C#N)CCNCC2)c2ccnc(-c3ccn[nH]3)c2n1` [Compound 37, (R)-4-(2-(3-methylmorpholino)-8-(1H-pyrazol-5-yl)-1,7-naphthyridin-4-yl)piperidine-4-carbonitrile]: 1000 to 5000 nM; `CC(=O)N1CCC(C#N)(c2cc(N3CCOC[C@H]3C)nc3c(-c4ccn[nH]4)nccc23)CC1` [Compound 38, (R)-1-acetyl-4-(2-(3-methylmorpholino)-8-(1H-pyrazol-5-yl)-1,7-naphthyridin-4-yl)piperidine-4-carbonitrile]: 1000 to 5000 nM.

In turn, `C[C@@H]1COCCN1c1cc(C2(C#N)CCN(S(C)(=O)=O)CC2)c2ccnc(-c3ccn[nH]3)c2n1` [Compound 39] had an IC50 of 1000 to 5000 nM.

Consider `CC(=O)N1CCCC(C#N)(c2cc(N3CCOC[C@H]3C)nc3c(-c4ccn[nH]4)nccc23)C1` (stereo partly drawn) [Compound 40], for which the IC50 was > 5000 nM. For the compound `C[C@@H]1COCCN1c1cc(C2(C#N)CCN(CC(F)(F)F)CC2)c2ccnc(-c3ccn[nH]3)c2n1` [Compound 41, (R)-4-(2-(3-methylmorpholino)-8-(1H-pyrazol-5-yl)-1,7-naphthyridin-4-yl)-1-(2,2,2-trifluoroethyl)piperidine-4-carbonitrile], the IC50 is < 1000 nM.

With `C[C@@H]1COCCN1c1cc(C2(C#N)CCN(CC(F)F)CC2)c2ccnc(-c3ccn[nH]3)c2n1` [Compound 42], the IC50 was < 1000 nM. In the case of `C[C@@H]1COCCN1c1cc(C2(C#N)CCN(C3CCN(C)CC3)CC2)c2ccnc(-c3ccn[nH]3)c2n1` [Compound 44], the IC50 was < 1000 nM. Regarding `C[C@@H]1COCCN1c1cc(C2(C#N)CCN(c3ccc(Cl)cc3)CC2)c2ccnc(-c3ccn[nH]3)c2n1` [Compound 45, (R)-1-(4-chlorophenyl)-4-(2-(3-methylmorpholino)-8-(1H-pyrazol-5-yl)-1,7-naphthyridin-4-yl)piperidine-4-carbonitrile], the IC50 is < 1000 nM. `C[C@@H]1COCCN1c1cc(C2(C#N)CCN(C3CC3)CC2)c2ccnc(-c3ccn[nH]3)c2n1` [Compound 46]: the IC50 is < 1000 nM. With `C[C@@H]1COCCN1c1cc(C2(C#N)CCN(c3ccc(F)cn3)CC2)c2ccnc(-c3ccn[nH]3)c2n1` [Compound 47], the IC50 is 1000 to 5000 nM. The result for `C[C@@H]1COCCN1c1cc(C2(C#N)CCN(c3cccc(F)c3)CC2)c2ccnc(-c3ccn[nH]3)c2n1` [Compound 48] reads < 1000 nM; that for `C[C@@H]1COCCN1c1cc(C2(C#N)CCN(c3ccccc3F)CC2)c2ccnc(-c3ccn[nH]3)c2n1` [Compound 49], < 1000 nM.

As to `C[C@@H]1COCCN1c1cc(C2(C#N)CCN(c3ccc(F)cc3)CC2)c2ccnc(-c3ccn[nH]3)c2n1` [Compound 50], the IC50 is < 1000 nM. In the case of `C[C@@H]1COCCN1c1cc(C2(C#N)CCC3(CC2)COC3)c2ccnc(-c3ccn[nH]3)c2n1` [Compound 51], the IC50 was < 1000 nM. Next, `C[C@@H]1COCCN1c1cc(C2(C#N)CCC3(CC2)CN(C)C3)c2ccnc(-c3ccn[nH]3)c2n1` [Compound 52]: < 1000 nM. The result for `CCOC1CCC(C#N)(c2cc(N3CCOC[C@H]3C)nc3c(-c4ccn[nH]4)nccc23)CC1` (stereo partly drawn) [Compound 54] reads < 1000 nM. The result for `CC(C)OC1CCC(C#N)(c2cc(N3CCOC[C@H]3C)nc3c(-c4ccn[nH]4)nccc23)CC1` (stereo partly drawn) [Compound 55] reads < 1000 nM.

Regarding `C[C@@H]1COCCN1c1cc(C2(C#N)CCC(OCC3CC3)CC2)c2ccnc(-c3ccn[nH]3)c2n1` (stereo partly drawn) [Compound 56], the IC50 was < 1000 nM. Next, `C[C@@H]1COCCN1c1cc(C2(C#N)CCC(OC3CC3)CC2)c2ccnc(-c3ccn[nH]3)c2n1` (stereo partly drawn) [Compound 57]: < 1000 nM. The result for `C[C@@H]1COCCN1c1cc(C2(C#N)CCC(OC3CCC3)CC2)c2ccnc(-c3ccn[nH]3)c2n1` (stereo partly drawn) [Compound 58] reads < 1000 nM. The result for `C[C@@H]1COCCN1c1cc(C2(C#N)CCC(OC3CCCC3)CC2)c2ccnc(-c3ccn[nH]3)c2n1` (stereo partly drawn) [Compound 59] reads < 1000 nM; that for `C[C@@H]1COCCN1c1cc(C2(C#N)CCC(N)CC2)c2ccnc(-c3ccn[nH]3)c2n1` (stereo partly drawn) [Compound 60], < 1000 nM. Consider `CNC1CCC(C#N)(c2cc(N3CCOC[C@H]3C)nc3c(-c4ccn[nH]4)nccc23)CC1` (stereo partly drawn) [Compound 61], for which the IC50 is < 1000 nM. Next, `CCN(CC)C1CCC(C#N)(c2cc(N3CCOC[C@H]3C)nc3c(-c4ccn[nH]4)nccc23)CC1` (stereo partly drawn) [Compound 62]: < 1000 nM; `C[C@@H]1COCCN1c1cc(C2(C#N)CCC(N3CCC3)CC2)c2ccnc(-c3ccn[nH]3)c2n1` (stereo partly drawn) [Compound 63]: < 1000 nM. Turning to `C[C@@H]1COCCN1c1cc(C2(C#N)CCC(N3CCCCC3)CC2)c2ccnc(-c3ccn[nH]3)c2n1` (stereo partly drawn) [Compound 64], the IC50 was < 1000 nM. On to `C[C@@H]1COCCN1c1cc(C2(C#N)CCC(N3CCOCC3)CC2)c2ccnc(-c3ccn[nH]3)c2n1` (stereo partly drawn) [Compound 65], for which the IC50 was < 1000 nM. On to `CCN1CCC(C#N)(c2cc(N3CCOC[C@H]3C)nc3c(-c4ccn[nH]4)nccc23)CC1` [Compound 66], for which the IC50 is < 1000 nM. Next, `CC(C)N1CCC(C#N)(c2cc(N3CCOC[C@H]3C)nc3c(-c4ccn[nH]4)nccc23)CC1` [Compound 67]: < 1000 nM; `C[C@@H]1COCCN1c1cc(C2(C#N)CCN(C3CCC3)CC2)c2ccnc(-c3ccn[nH]3)c2n1` [Compound 68]: < 1000 nM.

Values taken from patent US20240317741A1, “NAPHTHYRIDINE DERIVATIVE AS ATR INHIBITOR AND METHOD FOR PREPARING SAME” (WIGEN BIOMEDICINE TECHNOLOGY (SHANGHAI) CO., LTD., priority 2021, published 2024).
